We go through one compound from ChEMBL document CHEMBL2321687, “Identification of a novel arylpiperazine scaffold for fatty acid amide hydrolase inhibition with improved drug disposition properties” (Bioorg Med Chem Lett, 2013).

In experiment [1] the target is Muscarinic acetylcholine receptor M2 (Homo sapiens) (UniProt P08172). The experiment in a line: Displacement of [3H]AF-DX384 from human recombinant muscarinic M2 receptor expressed in CHO cells at 1 uM. Format: cell-based. For orientation: Loss of bound radioactivity is the signal in a displacement assay; it reports binding, not function.
In experiment [2] the target is Beta-2 adrenergic receptor (Homo sapiens) (UniProt P07550). The experiment in a line: Displacement of [3H](-)CGP12177 from human recombinant beta2 receptor expressed in CHO cells at 1 uM. The class given is cell-based.
Experiment [3] deals with Adrenergic receptor alpha-1 (Rattus norvegicus) (UniProt P15823+P23944+P43140). The experiment in a line: Displacement of [3H]prazosin from rat alpha1 receptor in cerebral cortex. Conditions: concentration not given here. The class given is tissue-based.
Experiment [4] is filed under the species Rattus norvegicus. As to the kind of experiment: Displacement of [3H]batrachotoxinin from rat Na+ channel site 2 in cerebral cortex. Format: tissue-based. Conditions: concentration not given here.
The target in experiment [5] is 5-hydroxytryptamine receptor 6 (Homo sapiens) (UniProt P50406). The experiment in a line: Displacement of [3H]LSD from human recombinant 5-HT6 receptor expressed in CHO cells at 1 uM. The class given is cell-based.
Experiment [6] deals with Vasopressin V1a receptor (Homo sapiens) (UniProt P37288). As to the kind of experiment: Displacement of [3H]AVP from human recombinant V1a receptor expressed in CHO cells at 1 uM. Format: cell-based.
For experiment [7], the target named is Cholecystokinin receptor type A (Homo sapiens) (UniProt P32238). As to the kind of experiment: Displacement of [125I]CCK-8 from human recombinant CCKA receptor expressed in CHO cells at 1 uM. The class given is cell-based.
Experiment [8] has as its target B2 bradykinin receptor (Homo sapiens) (UniProt P30411). As to the kind of experiment: Displacement of [3H]bradykinin from human recombinant B2 receptor expressed in CHO cells at 1 uM. The class given is cell-based.
For experiment [9], the target named is Thromboxane A2 receptor (Homo sapiens) (UniProt P21731). As to the kind of experiment: Displacement of [3H]SQ29548 from human recombinant TP receptor expressed in HEK293 cells at 1 uM. The class given is cell-based.
Experiment [10] concerns the target C-X-C chemokine receptor type 2 (Homo sapiens) (UniProt P25025). As to the kind of experiment: Displacement of [125I]IL-8 from human recombinant CXCR2 receptor expressed in HEK293 cells at 1 uM. The class given is cell-based.
The target of experiment [11] is Neuropeptide Y receptor type 2 (Homo sapiens) (UniProt P49146). As to the kind of experiment: Displacement of [125I]peptideYY from human Y2 receptor in KAN-TS cells. Format: cell-based. As to conditions: concentration not given here.
In experiment [12] the target is Melatonin receptor type 1A (Homo sapiens) (UniProt P48039). The experiment in a line: Displacement of [125I]2-iodomelatonin from human recombinant MT1 receptor expressed in CHO cells at 1 uM. The class given is cell-based.
Experiment [13] addresses Melanocortin receptor 4 (Homo sapiens) (UniProt P32245). The experiment in a line: Displacement of [125I]NDP-a-MSH from human recombinant MC4 receptor expressed in CHO cells at 1 uM. Format: cell-based.
The target of experiment [14] is 5-hydroxytryptamine receptor 1A (Homo sapiens) (UniProt P08908). The experiment in a line: Displacement of [3H]8-OH-DPAT from human recombinant 5-HT1A receptor expressed in HEK293 cells at 1 uM. Format: cell-based.
Experiment [15] has as its target Kappa-type opioid receptor (Rattus norvegicus) (UniProt P34975). The experiment in a line: Displacement of [3H]U69593 from rat recombinant kappa opioid receptor expressed in CHO cells at 1 uM. Format: cell-based.
Experiment [16] has as its target Sodium-dependent serotonin transporter (Homo sapiens) (UniProt P31645). The experiment in a line: Displacement of [3H]imipramine from human recombinant 5-HT transporter expressed in CHO cells at 1 uM. The class given is cell-based.
The target in experiment [17] is Mu-type opioid receptor (Homo sapiens) (UniProt P35372). As to the kind of experiment: Displacement of [3H]DAMGO from human recombinant mu opioid receptor expressed in HEK293 cells at 1 uM. Format: cell-based.
The test system of experiment [18] is CHO. The experiment in a line: Displacement of [3H]DADLE from human recombinant delta2 opioid receptor expressed in CHO cells at 1 uM. The class given is cell-based.
For experiment [19], the target named is Galanin receptor type 2 (Homo sapiens) (UniProt O43603). As to the kind of experiment: Displacement of [125I]Galanin from human recombinant GAL2 receptor expressed in CHO cells at 1 uM. Format: cell-based.
Experiment [20] addresses 5-hydroxytryptamine receptor 1B (Rattus norvegicus) (UniProt P28564). The experiment in a line: Displacement of [125I]CYP from rat 5-HT1B receptor in cerebral cortex. Format: tissue-based. As to conditions: concentration not given here.
The target of experiment [21] is Type-1 angiotensin II receptor (Homo sapiens) (UniProt P30556). The experiment in a line: Displacement of [125I][Sar1,Ile8]-AT II from human recombinant AT1 receptor expressed in HEK293 cells at 1 uM. The class given is cell-based.
The target in experiment [22] is D(1A) dopamine receptor (Homo sapiens) (UniProt P21728). The experiment in a line: Displacement of [3H]SCH23390 from human recombinant D1 receptor expressed in CHO cells at 1 uM. Format: cell-based.
Chain of D(1A) dopamine receptor (Homo sapiens) (P21728 whole entry): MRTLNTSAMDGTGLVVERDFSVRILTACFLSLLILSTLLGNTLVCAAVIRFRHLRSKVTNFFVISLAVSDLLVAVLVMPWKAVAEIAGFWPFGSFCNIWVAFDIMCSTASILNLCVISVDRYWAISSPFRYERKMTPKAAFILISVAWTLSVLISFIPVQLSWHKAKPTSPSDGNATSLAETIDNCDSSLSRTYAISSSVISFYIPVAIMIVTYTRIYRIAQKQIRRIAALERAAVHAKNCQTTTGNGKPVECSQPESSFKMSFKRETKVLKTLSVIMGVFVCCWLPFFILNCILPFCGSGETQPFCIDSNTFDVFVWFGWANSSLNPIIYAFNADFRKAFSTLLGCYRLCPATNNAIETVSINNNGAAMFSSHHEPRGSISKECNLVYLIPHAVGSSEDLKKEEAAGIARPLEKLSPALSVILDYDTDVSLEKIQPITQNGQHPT

Chain of Sodium-dependent serotonin transporter (Homo sapiens) (P31645 whole entry, looked up): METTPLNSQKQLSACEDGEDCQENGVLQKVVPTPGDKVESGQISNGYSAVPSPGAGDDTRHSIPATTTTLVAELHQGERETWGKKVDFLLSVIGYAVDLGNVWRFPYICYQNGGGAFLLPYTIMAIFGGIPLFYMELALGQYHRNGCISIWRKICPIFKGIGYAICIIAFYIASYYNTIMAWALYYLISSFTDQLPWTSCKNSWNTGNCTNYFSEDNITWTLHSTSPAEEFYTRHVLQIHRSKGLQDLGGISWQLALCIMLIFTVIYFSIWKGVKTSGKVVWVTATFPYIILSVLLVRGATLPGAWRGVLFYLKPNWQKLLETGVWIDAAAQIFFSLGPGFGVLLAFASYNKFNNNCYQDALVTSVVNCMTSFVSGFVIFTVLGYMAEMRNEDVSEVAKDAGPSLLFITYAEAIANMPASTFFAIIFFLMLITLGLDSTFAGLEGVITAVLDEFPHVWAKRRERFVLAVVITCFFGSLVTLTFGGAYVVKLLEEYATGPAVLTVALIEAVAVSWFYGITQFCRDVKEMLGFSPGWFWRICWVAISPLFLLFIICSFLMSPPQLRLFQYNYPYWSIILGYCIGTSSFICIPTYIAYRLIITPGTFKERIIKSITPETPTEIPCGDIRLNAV
Chain of Beta-2 adrenergic receptor (Homo sapiens) (P07550 whole entry, looked up): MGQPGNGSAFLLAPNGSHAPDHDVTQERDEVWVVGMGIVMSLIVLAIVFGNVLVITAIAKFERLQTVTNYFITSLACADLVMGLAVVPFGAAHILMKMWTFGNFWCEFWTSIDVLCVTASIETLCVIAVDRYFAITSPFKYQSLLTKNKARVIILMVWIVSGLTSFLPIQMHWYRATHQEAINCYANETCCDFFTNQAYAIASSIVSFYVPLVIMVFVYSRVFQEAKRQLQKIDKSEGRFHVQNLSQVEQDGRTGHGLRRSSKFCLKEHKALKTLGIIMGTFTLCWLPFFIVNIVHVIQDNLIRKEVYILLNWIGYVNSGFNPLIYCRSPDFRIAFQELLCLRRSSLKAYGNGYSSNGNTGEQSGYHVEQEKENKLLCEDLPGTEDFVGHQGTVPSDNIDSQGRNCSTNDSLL
Chain of 5-hydroxytryptamine receptor 1B (Rattus norvegicus) (P28564 whole entry): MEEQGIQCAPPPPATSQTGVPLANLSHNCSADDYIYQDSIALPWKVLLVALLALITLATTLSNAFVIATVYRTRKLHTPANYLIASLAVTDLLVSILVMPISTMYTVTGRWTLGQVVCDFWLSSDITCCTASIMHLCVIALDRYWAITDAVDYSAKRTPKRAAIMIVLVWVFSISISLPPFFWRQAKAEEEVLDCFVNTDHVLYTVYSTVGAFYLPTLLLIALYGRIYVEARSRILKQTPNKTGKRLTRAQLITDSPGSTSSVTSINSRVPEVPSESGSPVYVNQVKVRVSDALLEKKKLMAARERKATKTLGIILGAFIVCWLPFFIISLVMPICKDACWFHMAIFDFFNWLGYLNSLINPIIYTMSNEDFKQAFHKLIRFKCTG
Chain of 5-hydroxytryptamine receptor 6 (Homo sapiens) (P50406 whole entry): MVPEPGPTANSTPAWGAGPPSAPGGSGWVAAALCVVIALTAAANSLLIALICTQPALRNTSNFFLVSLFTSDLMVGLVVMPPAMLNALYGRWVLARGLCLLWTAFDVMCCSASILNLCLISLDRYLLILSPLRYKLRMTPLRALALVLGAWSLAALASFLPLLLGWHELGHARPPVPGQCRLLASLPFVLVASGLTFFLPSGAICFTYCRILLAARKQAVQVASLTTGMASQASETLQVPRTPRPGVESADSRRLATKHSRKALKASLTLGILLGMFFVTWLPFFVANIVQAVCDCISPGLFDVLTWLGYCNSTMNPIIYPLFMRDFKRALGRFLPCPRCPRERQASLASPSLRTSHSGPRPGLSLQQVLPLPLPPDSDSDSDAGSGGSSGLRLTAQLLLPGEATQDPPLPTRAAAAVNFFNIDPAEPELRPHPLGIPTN
Chain of Galanin receptor type 2 (Homo sapiens) (O43603 whole entry): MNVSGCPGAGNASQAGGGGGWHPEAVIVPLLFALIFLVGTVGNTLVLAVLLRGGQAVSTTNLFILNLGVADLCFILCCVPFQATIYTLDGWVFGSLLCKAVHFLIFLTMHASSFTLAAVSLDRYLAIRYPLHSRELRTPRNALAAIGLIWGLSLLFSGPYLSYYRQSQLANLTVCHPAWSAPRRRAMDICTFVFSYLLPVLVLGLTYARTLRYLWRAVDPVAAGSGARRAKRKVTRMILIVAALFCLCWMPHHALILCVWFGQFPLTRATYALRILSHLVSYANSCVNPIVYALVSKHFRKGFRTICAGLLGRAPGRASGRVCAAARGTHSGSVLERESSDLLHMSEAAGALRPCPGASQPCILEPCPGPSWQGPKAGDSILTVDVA
Chain of B2 bradykinin receptor (Homo sapiens) (P30411 whole entry): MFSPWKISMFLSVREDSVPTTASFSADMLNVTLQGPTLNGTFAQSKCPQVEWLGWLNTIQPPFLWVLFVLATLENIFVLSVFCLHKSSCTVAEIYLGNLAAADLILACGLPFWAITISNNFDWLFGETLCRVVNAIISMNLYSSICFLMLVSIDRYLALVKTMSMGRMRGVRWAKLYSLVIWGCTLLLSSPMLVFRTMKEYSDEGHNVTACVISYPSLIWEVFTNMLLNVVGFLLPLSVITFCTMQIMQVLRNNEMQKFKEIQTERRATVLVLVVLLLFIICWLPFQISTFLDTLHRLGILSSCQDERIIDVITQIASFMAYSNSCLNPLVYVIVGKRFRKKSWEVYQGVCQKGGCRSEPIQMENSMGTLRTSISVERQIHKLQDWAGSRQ
Chain of Mu-type opioid receptor (Homo sapiens) (P35372 whole entry): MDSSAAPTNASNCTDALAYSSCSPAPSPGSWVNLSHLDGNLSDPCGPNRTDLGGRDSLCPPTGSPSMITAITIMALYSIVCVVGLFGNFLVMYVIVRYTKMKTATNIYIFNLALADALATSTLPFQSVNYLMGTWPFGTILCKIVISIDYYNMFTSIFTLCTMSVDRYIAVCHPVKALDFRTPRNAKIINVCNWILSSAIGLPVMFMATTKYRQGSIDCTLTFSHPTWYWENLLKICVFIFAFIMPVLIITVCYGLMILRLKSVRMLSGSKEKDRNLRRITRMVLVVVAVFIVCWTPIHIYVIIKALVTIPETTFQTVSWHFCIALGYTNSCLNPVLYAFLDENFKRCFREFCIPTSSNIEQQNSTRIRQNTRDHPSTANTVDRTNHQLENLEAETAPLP
Chain of Muscarinic acetylcholine receptor M2 (Homo sapiens) (P08172 whole entry): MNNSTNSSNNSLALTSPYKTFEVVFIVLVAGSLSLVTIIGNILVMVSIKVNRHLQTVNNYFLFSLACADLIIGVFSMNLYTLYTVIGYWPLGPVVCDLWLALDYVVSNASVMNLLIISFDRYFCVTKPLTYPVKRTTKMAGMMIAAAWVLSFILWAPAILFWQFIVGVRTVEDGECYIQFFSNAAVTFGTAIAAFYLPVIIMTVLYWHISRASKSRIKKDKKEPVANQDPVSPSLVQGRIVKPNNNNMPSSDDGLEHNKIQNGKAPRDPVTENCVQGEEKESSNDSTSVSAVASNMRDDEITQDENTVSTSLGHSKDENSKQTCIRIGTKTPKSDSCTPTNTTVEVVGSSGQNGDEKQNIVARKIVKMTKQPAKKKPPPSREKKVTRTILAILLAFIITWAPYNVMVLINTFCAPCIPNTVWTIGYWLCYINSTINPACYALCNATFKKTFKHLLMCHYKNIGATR
Chain of Kappa-type opioid receptor (Rattus norvegicus) (P34975 whole entry): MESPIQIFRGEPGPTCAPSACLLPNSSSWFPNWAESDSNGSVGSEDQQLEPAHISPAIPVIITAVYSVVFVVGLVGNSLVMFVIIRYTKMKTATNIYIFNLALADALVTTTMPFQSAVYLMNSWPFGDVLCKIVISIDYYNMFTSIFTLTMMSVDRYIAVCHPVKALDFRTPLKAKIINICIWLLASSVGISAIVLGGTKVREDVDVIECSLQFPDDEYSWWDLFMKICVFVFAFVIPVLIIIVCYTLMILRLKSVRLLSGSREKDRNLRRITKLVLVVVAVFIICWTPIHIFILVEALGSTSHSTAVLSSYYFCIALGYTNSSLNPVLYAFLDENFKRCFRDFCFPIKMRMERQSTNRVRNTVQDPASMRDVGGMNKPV
Chain of Neuropeptide Y receptor type 2 (Homo sapiens) (P49146 whole entry): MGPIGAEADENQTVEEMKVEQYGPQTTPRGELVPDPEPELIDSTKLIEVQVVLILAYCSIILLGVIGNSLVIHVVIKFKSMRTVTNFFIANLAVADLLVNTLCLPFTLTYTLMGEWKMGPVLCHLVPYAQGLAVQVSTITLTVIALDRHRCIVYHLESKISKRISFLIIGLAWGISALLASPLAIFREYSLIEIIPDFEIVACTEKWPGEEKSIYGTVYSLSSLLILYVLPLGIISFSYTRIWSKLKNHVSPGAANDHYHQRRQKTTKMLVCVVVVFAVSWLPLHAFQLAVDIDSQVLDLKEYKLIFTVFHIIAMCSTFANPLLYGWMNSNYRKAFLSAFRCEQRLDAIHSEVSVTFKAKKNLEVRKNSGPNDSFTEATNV

Regarding `CCCCCCCOc1ccc(NC(=O)Oc2cccc(N3CCNCC3)c2)cc1`, the inhibition (commonly the relative decrease from the control value, in per cent) in experiment [1] was found to be 23%; in experiment [2] it was 19%; in [3], 7%; in experiment [4] it was 32%; in [5], 42%; in experiment [6] it was 17%. Also, the inhibition in experiment [7] was 1%; in experiment [8], -5%; in [9], 1%; in experiment [10], -5%; in experiment [11], -9%; in experiment [12] it was -6%. Further, the inhibition in [13] stood at 3%; in experiment [14], 97%; in experiment [15], 57%; in experiment [16] it was 36%; in experiment [17] it was 77%; in experiment [18], 61%. The inhibition is -10% in experiment [19], 96% in experiment [20], -1% in [21] and 70% in experiment [22].
